Experimental data from patent US4623661A, “Lipoxygenase inhibiting compounds” (Abbott Laboratories, priority 1985, dated 1986).

Assays:
Format in all cases: biochemical
5-lipoxygenase = target: T1, 5-lipoxygenase (Rattus norvegicus, UniProt P12527); assay: 5-Lipoxygenase IC50 determination (20,000 G supernatant from homogenized RBL-1 cells, radiolabeled arachidonic acid); details: RBL-1 cell 20,000 G supernatant; linear regression of % inhibition vs log concentration
T1 construct: 20,000 G supernatant from 7.5×10^6 homogenized RBL-1 cells; endogenous in cells; host or cells: RBL-1 cells (20,000 G supernatant of homogenate)
T1 sequence (P12527 1-673): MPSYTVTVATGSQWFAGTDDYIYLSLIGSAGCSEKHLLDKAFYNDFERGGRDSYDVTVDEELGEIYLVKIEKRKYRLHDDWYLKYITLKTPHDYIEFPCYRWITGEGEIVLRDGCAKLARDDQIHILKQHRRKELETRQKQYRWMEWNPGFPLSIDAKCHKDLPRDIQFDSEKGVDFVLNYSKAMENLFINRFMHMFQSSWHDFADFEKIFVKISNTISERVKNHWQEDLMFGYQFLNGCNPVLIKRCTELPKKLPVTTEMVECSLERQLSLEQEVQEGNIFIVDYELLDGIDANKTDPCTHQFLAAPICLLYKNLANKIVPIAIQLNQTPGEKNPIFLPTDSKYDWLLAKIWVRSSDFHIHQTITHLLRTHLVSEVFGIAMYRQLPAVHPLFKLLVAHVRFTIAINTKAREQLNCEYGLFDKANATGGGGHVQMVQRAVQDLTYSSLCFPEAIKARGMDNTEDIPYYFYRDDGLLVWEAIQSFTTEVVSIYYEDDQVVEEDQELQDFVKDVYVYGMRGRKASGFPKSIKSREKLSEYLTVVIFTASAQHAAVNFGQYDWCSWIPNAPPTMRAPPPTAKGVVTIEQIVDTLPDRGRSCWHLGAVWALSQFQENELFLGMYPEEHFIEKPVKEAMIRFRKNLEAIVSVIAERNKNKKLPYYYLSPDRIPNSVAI
Procedure: Reactions were initiated by the addition of radiolabeled arachidonic acid and terminated by acidification and ether extraction. Reaction products were separated from nonconverted substrate by thin layer chromatography and measured by liquid scintillatiton spectroscopy. Inhibition of 5-lipoxygenase activity was calculated as the ratio of the amounts of product formed in the presence and absence of inhibitor.

15-lipoxygenase = target: T2, 15-lipoxygenase (Glycine max, UniProt P08170); assay: 15-lipoxygenase inhibition (15-lipoxygenase obtained from soybean); details: for inhibition at 10 µM: read-out: % Inhibition at Indicated Concentration, 15-lipoxygenase, 10 uM; for inhibition at 100 µM: read-out: % Inhibition at Indicated Concentration, 15-lipoxygenase, 100 uM
T2 construct: 15-lipoxygenase obtained from soybean; from tissue; host or cells: soybean
T2 sequence (P08170 1-839): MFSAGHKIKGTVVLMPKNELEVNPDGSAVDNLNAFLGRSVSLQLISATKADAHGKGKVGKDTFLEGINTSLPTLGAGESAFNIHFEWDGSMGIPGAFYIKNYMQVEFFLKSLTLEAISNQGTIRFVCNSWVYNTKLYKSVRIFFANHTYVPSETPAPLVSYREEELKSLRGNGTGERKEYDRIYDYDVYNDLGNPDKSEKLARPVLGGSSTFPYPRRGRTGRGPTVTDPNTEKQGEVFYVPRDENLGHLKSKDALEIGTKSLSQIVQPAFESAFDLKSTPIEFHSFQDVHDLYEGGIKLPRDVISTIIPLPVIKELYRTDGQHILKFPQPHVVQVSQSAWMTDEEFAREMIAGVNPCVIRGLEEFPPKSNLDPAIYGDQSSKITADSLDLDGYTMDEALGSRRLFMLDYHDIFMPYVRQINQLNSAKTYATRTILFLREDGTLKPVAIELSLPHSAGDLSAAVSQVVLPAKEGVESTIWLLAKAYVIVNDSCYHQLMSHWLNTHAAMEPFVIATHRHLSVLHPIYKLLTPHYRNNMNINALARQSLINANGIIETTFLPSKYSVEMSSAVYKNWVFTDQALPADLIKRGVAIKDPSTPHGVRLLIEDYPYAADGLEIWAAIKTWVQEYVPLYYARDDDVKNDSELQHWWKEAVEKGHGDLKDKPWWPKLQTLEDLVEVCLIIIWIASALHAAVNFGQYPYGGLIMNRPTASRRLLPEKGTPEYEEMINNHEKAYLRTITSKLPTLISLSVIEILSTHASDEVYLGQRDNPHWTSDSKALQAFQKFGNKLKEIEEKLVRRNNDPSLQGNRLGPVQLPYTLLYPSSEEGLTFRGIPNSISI
Procedure: (§1) The compounds of this invention are potent inhibitors of 5-, 12- and 15-lipoxygenase. An assay to determine 5-lipoxygenase activity was performed in incubations containing various concentrations of the test compound and the 20,000 G supernatant from 7.5×10^6 homogenized RBL-1 cells. Reactions were initiated by the addition of radiolabeled arachidonic acid and terminated by acidification and ether extraction. Reaction products were separated from nonconverted substrate by thin layer chromatography and measured by liquid scintillatiton spectroscopy. Inhibition of 5-lipoxygenase activity was calculated as the ratio of the amounts of product formed in the presence and absence of inhibitor.
(§2) The inhibitory activities of the compounds of this invention against 12- and 15-lipoxygenase can be determined in the foregoing assay in which 12-lipoxygenase obtained from human platelets, or 15-lipoxygenase obtained from soybean, is substituted for the 5-lipoxygenase-containing cell supernatant fraction.

12-lipoxygenase = target: T3, 12-lipoxygenase (Homo sapiens, UniProt P18054); assay: 12-lipoxygenase inhibition (12-lipoxygenase obtained from human platelets); details: for inhibition at 10 µM: read-out: % Inhibition at Indicated Concentration, 12-lipoxygenase, 10 uM; for inhibition at 100 µM: read-out: % Inhibition at Indicated Concentration, 12-lipoxygenase, 100 uM
T3 construct: 12-lipoxygenase obtained from human platelets; from tissue; host or cells: human platelets
T3 sequence (P18054 1-663): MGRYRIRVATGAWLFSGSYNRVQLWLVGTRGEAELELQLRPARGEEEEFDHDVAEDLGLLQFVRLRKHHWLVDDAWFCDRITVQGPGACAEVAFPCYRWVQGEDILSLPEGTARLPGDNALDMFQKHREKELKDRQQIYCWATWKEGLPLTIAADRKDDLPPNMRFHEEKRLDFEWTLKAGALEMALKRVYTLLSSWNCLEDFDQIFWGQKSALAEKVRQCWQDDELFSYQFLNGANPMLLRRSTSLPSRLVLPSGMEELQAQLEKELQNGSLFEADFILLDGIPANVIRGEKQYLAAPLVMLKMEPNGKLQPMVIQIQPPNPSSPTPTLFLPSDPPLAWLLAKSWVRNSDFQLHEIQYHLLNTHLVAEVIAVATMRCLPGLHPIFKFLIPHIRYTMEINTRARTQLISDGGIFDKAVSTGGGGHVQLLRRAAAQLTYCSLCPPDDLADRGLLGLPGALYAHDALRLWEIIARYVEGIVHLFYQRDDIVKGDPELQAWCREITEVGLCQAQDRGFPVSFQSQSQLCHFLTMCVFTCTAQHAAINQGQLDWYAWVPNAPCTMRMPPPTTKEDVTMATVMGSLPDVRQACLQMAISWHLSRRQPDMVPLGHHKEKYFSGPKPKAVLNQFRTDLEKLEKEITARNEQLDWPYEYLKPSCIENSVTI
Procedure: as §1, §2

## O=C(NO)c1cccc(-c2ccccc2)c1 [Example 8, 3-biphenyl hydroxamic acid]
5-lipoxygenase
  IC50: 6000 nM
15-lipoxygenase
  inhibition at 10 µM: 33%
  inhibition at 100 µM: 33%

## CN(O)C(=O)C=Cc1ccc(-c2ccccc2)cc1 [Example 1, N-Methyl 3-(4-biphenyl)acrylohydroxamic acid]
15-lipoxygenase
  inhibition at 10 µM: 52%
  inhibition at 100 µM: 74%
12-lipoxygenase
  inhibition at 10 µM: 63%
  inhibition at 100 µM: 68%

## O=C(NO)c1ccc(-c2ccccc2)cc1 [Example 7, 4-biphenyl hydroxamic acid]
5-lipoxygenase
  IC50: 4100 nM
15-lipoxygenase
  inhibition at 10 µM: 0%
  inhibition at 100 µM: 30%
12-lipoxygenase
  inhibition at 10 µM: 86%
  inhibition at 100 µM: 97%

## O=C(NO)c1ccc2ccc3ccccc3c2c1 [Example 13, 3-Phenanthryl hydroxamic acid]
5-lipoxygenase
  IC50: 1200 nM
15-lipoxygenase
  inhibition at 10 µM: 25%
  inhibition at 100 µM: 39%

## O=C(NO)c1ccc2c(ccc3ccccc32)c1 [Example 12, 2-Phenanthrylhydroxamic acid]
5-lipoxygenase
  IC50: 1900 nM

## CN(O)C(=O)C=Cc1cccc(-c2ccccc2)c1 [Example 2, N-methyl-3-(3-biphenyl)-acrylohydroxamic acid]
15-lipoxygenase
  inhibition at 10 µM: 43%
  inhibition at 100 µM: 85%
12-lipoxygenase
  inhibition at 10 µM: 99%
  inhibition at 100 µM: 96%
